From US12263140B1, “Methods of reducing the production of greenhouse gases from animals” (AGRICULTURAL SCIENCES LIMITED, priority 2023, dated 2025) come the findings set out here.

What all share (format): in vivo
Data set [1] has as its system sheep. Kind of data set: Sheep weight gain trial, vitamin K3 in drinking water, 22 days. The text has this: A trial was completed using three randomly selected Wiltshire hogget wether sheep as the test subjects chosen from a wider group of sheep.
The test subject sheep were allowed access to the dosed water for a total of 5 days, after which the confinement was removed and the test subject and un-dosed control sheep mixed in the same field. From day 6 the test sheep grazed the wider field and received only un-dosed tap water, identical to the control sheep (see below).
The remaining wider group of sheep post removal of the three test subject sheep became the control sheep which were contained in a wider part of the same field as the test subject sheep for the first five days and then mixed with the test subject sheep after five days as noted above. The control sheep had access ad libitum to un-dosed tap water during the first five days of the trial and, as noted, the test sheep and control sheep both had access to the same tap water source ad libitum post the initial five days and to the trial end.
To account for this, two mature ewes from a neighbouring property (“naïve” sheep controls) were introduced to graze in the same field as the control sheep (and post day 5, the control and test sheep). The naïve sheep also had ad libitum access to un-dosed tap water for the duration of the trial. It was envisaged that the naïve sheep would re-infect the control and test sheep with methanogens once in the same field.
The sheep from each group were weighed at the start of the trial and after 22 days had concluded. The weight gain (or loss) was then calculated being the difference between the 22 day weight and that measured at the trial start.

The subject of data set [2] is sheep. Kind of data set: Metabolic chamber trial of sheep drenched with vitamin K3. As to the method: Six one year old self shedding wether Wiltshire sheep were ranked by body weight and divided in to three strata or blocks. Block one contained the lightest sheep. Block 2 the mid-sized sheep, and Block 3 the heaviest sheep. Each of the sheep in each block was assigned at random to either be a control or experimental (dosed) individual.
The control group were not dosed at all.
Testing was completed at dosing and after 24 hours of methane emissions using a metabolic chamber. • The metabolic chamber used was made of sealed panel. All joints were made gas tight by sealing compounds, and the doors and hatches were made gas tight by rubber seals. The gas-tight metabolic chamber had viewing windows on one side, the top, and the exit door. Sheep entered after being weighed through an entrance door at one end. All doors and hatches were sealed by pull-down latches. • Air was introduced into the chamber by a 25 mm pipe assembly with the intake located in a pure air space area outside the work and animal holding areas. The air was propelled into the chamber by an electric impeller. The flow rate was set at 5 m·s^−1. Air inside the chamber was mixed by carefully placed baffles and an electric impeller to ensure even composition even when the animal burped out methane periodically.
When a sheep was introduced into the chamber it generally took between 2 and 3 minutes before the gas composition equilibrated and stayed constant. Readings were taken for few minutes once the gas levels had stabilised.
The dosing compound used as noted above, was human grade synthetic vitamin K3. This was dosed to the sheep as an aqueous oral fed drench.
A longer trial to the above was then completed with the same sheep.
Methane, carbon dioxide, volatile organic carbon (VOC) gas emissions and weight gain were measured at intervals during the trial time period of 241.2 hours.
Between being brought in for weighing and measuring, the sheep were allowed to graze normally on a grass field.

In data set [3] the test system is sheep. As to the kind of experiment: Sheep methane output trial, vitamin K3 in drinking water. To be noted: approximately 2 g per 20 litres drinking water; 48 h to 148 h, FIG. 21. As to the method: A trial was completed using Wiltshire hogget wether sheep.
The test sheep were able to drink further dosed water ad libitum while control sheep only had ad libitum access to tap water (un-dosed). Methane emitted by the test and control sheep was collected and emissions measured at intervals (48 h, 96 h, 120 h, 148 h).

Data set [4] has as its system sheep. As to the kind of experiment: CO2 in exhalant of sheep dosed with vitamin K3 in drinking water. To be noted: FIG. 24.
Data set [5] has as its system sheep. Kind of data set: TVOC and HCHO in exhalant breath of sheep dosed with vitamin K3 (skatole proxy). As to the method:
A trial was completed comparing the breath of test subject sheep dosed with vitamin K3 versus that of un-dosed sheep.
Total volatile organic compounds were measured in the exhalant breath of sheep. Two measurements were made being: • TVOC (Total Volatile Organic Compounds); and • HCHO (formaldehyde or equivalents).

Data set [6] has as its system sheep. As to the kind of experiment: Metabolic chamber trial of sheep drenched with vitamin K3. The following applies: Example 15 text; stated to be based on earlier experiments using the Douglas Bag technique.
Where [7] appears, read: Controls group: un-dosed water in trial, but dosed with vitamin K3 around two months before.
Setting [8] is: Dosed group: 1.87 g in 20 litres drinking water, access for 5 days.

With `CC1=CC(=O)c2ccccc2C1=O` [vitamin K3], in the data set with sheep [1] (setting [7]), the Daily weight gain was 0.064 and the “Wt. Gain (kg) after 22 days” value is given as 1.400 kg. For the same molecule, in the data set with sheep [1] (setting [8]), the Daily weight gain came out at 0.238 and the “Wt. Gain (kg) after 22 days” value came to 5.233 kg. For the same molecule, the “methane in one trial sheep” value with sheep [2] (Example 14, 24 hours post dosing) is on record as “no detectable trace of methane”. In the data set with sheep [2] (Example 14, single drench 75 mg (76 mg) in 15 ml water, dosing to 24 hours), the “average reduction in methane emissions versus control sheep” value is 96.4%. In addition, in the data set on sheep [2] (Example 15), the “distress during the trial” value is given as “showed no distress”, the “greatest reduction of methane emissions in any sheep” value is 100% and the “lowest value of the emission of methane from any sheep on any occasion” value is given as “zero”. For the same molecule, the “CO2 concentration after dosing, before subtracting air baseline” value with sheep [2] (Example 15, FIG. 18, metabolic chamber, from 1271 ppm) came out at 610 ppm. Further, in the data set on sheep [2] (Example 15, FIG. 19, R2=0.781), the “slope of best fit linear equation of mean body weight against HOURS” value stood at 2.18E-01. Further, the “total VOC in exhalant breath” value in the data set with sheep [2] (Example 15, FIG. 20) was “decreased over time”. Moreover, the “average reduction in methane emissions” value in the data set on sheep [2] (Example 15, single drench 75 mg in 15 ml water, 241.2 hours trial) was 80.5%. Moreover, the “duration of the reduction in methane emissions after the single dose” value in the data set on sheep [2] (Example 15, whole trial duration, no extra dosing) amounted to 241.2 h. Besides, the “methane emissions levels lower than control sheep” value in the data set with sheep [3] was 3-4 times. Besides, the “CO2 volume produced, less than control sheep” value with sheep [4] amounted to 3 ×. Further, the “TVOC in breath, less than in un-dosed sheep” value in the data set with sheep [5] (FIG. 22) was 4-5 times. The “impact on favourable indole compounds” value with sheep [5] (inventor's observations, dosed sheep thrived) was “no negative impact”. Further, in the data set on sheep [6], the “average reduction in carbon dioxide emissions” value worked out at 92%.

vitamin K: the “weight gain of control group (dosed two months earlier) relative to naïve sheep” value in the data set with sheep [1] (22 days) was 4-5 ×. Besides, the animal growth rate entry in the data set with sheep [2] (Example 15) is given as “increase in animal growth rate”.
